Experimental findings from patent US11884708B2, “Stapled peptide inhibitors of nemo as potential anti-inflammatory and anti-cancer drugs” (INSTITUT PASTEUR, priority 2015, dated 2024) are described below.

Data set [1] has as its target NF-κB pathway (Mus musculus, UniProt O88522). Put plainly: NF-κB inhibition assay, LPS-stimulated 70Z3-C3 lacZ reporter cells. Type of data set: cell-based. Conditions: 70Z3-C3 cells, 2 h peptide then LPS 4 h, N.I = No inhibition observed. An excerpt: The stable cell line of pre-B lymphocyte 70Z3-C3 cells expressing the lacZ reporter gene under the control of NF-κB was previously described. OCI-Ly3 (ABC-DLBCL, MALT1 dependent) and OCI-Ly7 (GCB-DLBCL). U2932 (ABC-DLBCL, MALT1 independent) were purchased from DSMZ (Deutsche Sammlung von Mikroorganismen and Zellkulturen) and HLY1 (ABC-DLBCL, MALT1 independent). Jurkat T-cells were obtained after transduction of lentiviruses containing a NF-κB reporter luciferase gene as previously described. All cell lines were grown in RPMI 1640 medium supplemented with 10% FBS, 10 μg/ml of streptomycin, 10 U/ml of penicillin and kept at 37° C., in a 5% CO2 humidified incubator. 0.05 mM of β-mercaptoethanol was added for 70Z3-C3. Primary and secondary antibodies were as following: polyclonal rabbit anti NF-κB p65, (sc-372, Santa Cruz Biotechnology, Inc) Alexa-488 coupled goat anti-rabbit IgG1 (Invitrogen) NF-κB inhibition assay was almost similar to those previously described in [1], except that luminescence data were monitored with a Centro XS^3, LB960 luminometer (Berthold technologies.), which is more sensitive. All experiments were performed in duplicates in 96-well plates. […] After 4 h incubation, cells were centrifuged 7 min at 400×g, at 4° C.

In data set [2] the test system is 70Z3-C3 cells. Briefly: Cellular uptake of BODIPY-labeled peptides by FACS. In kind it is cell-based. The settings on record: 10 μM labeled peptide, 2 h, 37° C. The protocol:
2.2×10^5 cells in 100 μl of 70Z3-C3 were incubated with either 10 μM or with various doses of 10 μM, 5 μM and 1 μM of labeled-peptides at 37° C., 5% CO2. Similarly to fluorescence microscopy experiments, cells alone or incubated with BODIPY®-labeled BSA (ref) or BODIPY®-UBI devoid of the antennapedia cell penetrating sequence were used as negative control, whereas cells with BA-UBI [1] at 10 μM were used as positive control. After 2 h incubation, cells were washed 4 times with PBS at room temperature, and finally diluted 1:3 in PBS before subjected to FACS analysis. Along with the BODIPY® fluorophore the fluorescence intensity was recorded at 525±25 nm using the Gallios Flow cytometer (Beckman Coulter) to analyse each cells sample. Each internalization peptide was assessed by gating a population of 15,000 events and the data were analysed using Kaluza software version 1.2.
For determination of cellular uptake by flow cytometry, the BA-UBI-SAHND306-Q313 stapled peptide was first incubated with 2.2×10^5 70Z3-C3 cells in […] either at 4° C. or 37° C. for 2 h. Bodipy-labeled BSA, bodipy alone and bodipy-UBI were used as negative controls to verify the washing quality and efficient removal of any non-specific binding at the cell surface before FACS analysis. […] After 2 h of incubation, cells were washed four times with PBS at room temperature and diluted at 1:3 in PBS for FACS analysis. Samples were analyzed as previously described in the European patent (No: 15307137.8).
In general terms: Flow cytometry measures light scatter and fluorescence of single cells or particles in a stream.

Data set [3] can be described thus: Temperature-induced denaturation followed by CD. In kind it is physicochemical. The settings on record: 30 μM or 300 μM, ΔCp ≈ 0; for Tm: thermal denaturation by CD; for ΔH: van't Hoff enthalpy change at Tm. On the procedure:
Temperature-induced denaturation experiments were performed by measuring the ellipticity at 222 nm from 1° C. to 95° C. in 1° C. steps, at a rate of 1° C./min, with a 2 nm bandwidth. Thermodynamic parameters including the melting temperature (Tm) and the van't Hoff enthalpy change at the melting temperature (ΔHm) were determined by fitting the denaturation curves with the Gibbs-Helmholtz equation as described elsewhere, [10]. The heat capacity change (ΔCp) was assumed to be 0 as judged by ΔHm which yielded similar values within 10% at two independent peptide concentrations (30 and 300 μM). The ellipticity was converted to differential extinction coefficient Δε (M^−1·cm^−1) per residue taking into account the peptide concentration determined by amino acid analysis.
Thermal stability of the peptides was also investigated by performing thermal denaturation profiles followed by CD (FIGS. 1 C and D and Table III). […] Indeed, the helicity of UBI-Aib (49%) is only 1.16-fold increased at 1° C. compared to UBI (42%), while its melting temperature (Tm=−8° C.) is 2.25 times higher than that of UBI (Tm=−18° C.).

Data set [4] in a line: CD spectroscopy, α-helical content. In kind it is physicochemical. Conditions: 50 μM peptide, phosphate buffer pH 7.0, UBI in TFE taken as 100%.
Data set [5] addresses CC2-LZ domain of NEMO (Mus musculus, UniProt O88522). Put plainly: Fluorescence anisotropy/polarization binding assay. The settings on record: for Kd: fixed peptide concentration 0.1 μM; for Binding affinity (FP) at 10 μM: fixed peptide concentration 10 μM. On the technique in general: Fluorescence polarisation rises when a labelled molecule tumbles more slowly, as on binding a larger partner.
Method: Measurements were performed on a Tecan infinite F500 equipped with polarizing filters and using excitation and emission wavelengths at 485 nm and 535 nm, respectively. Anisotropy data were calculated using the Magellan software version 6.5. Prior experiments, the mouse CC2-LZ was extensively dialyzed in binding buffer containing 20 mM HEPES pH 7.4, 100 mM NaCl, and 0.05% P20 detergent (v/v). All experiments were performed in a 384 well plate (vol 25 μl) at room temperature. The BODIPY®-labeled peptide concentrations were fixed at 0.1 or 10 μM whereas the CC2-LZ concentration varied from 0 to 100 μM. Reference calibrated at 22 mP, was based on the fluorescence of the peptide alone. Each experimental binding curve was determined from at least 10 independent concentration points. The G-factor was calculated as previously described in Agou et al. [7], with a value of 0.75, which was observed constant within 5% upon all titrations. For analysis, the blank value corresponding to the value of buffer alone, was subtracted from all titration data.
All NEMO peptides were conjugated to an extra N-terminal cysteine with the fluorophore BODIPY® or FITC to determine their binding affinity for the CC2-LZ domain of NEMO (also called NOA or UBAN) by fluorescence polarization. For each peptide titration, various concentration of the target ranging from 0 to 100 μM and a fixed concentration of peptide at 0.1 or 10 μM were used at 25° C. […] For these reasons, all further titration experiments were performed with a fixed peptide concentration of 0.1 μM unless otherwise indicated.

Where [6] appears, read: read-out: Binding affinity (FP) at 0.1 μM.

Read-outs that look alike come from different tables or passages of the source. Where a SMILES comes first, the peptide text is derived from it. Bridges are numbered along the chain shown (N, C = ends). Where no end group is shown, it is not given here. [ ]: non-standard residue; d: D form. The star is where a group is joined. BODIPYFLEthylmaleimide = Cc1cc(C)n2c1C=C1C=CC(CCC(=O)NCCN3C(=O)CC(*)C3=O)=[N+]1[B-]2(F)F; R8 = C=CCCCCCC[C@@](C)(N)C(=O)O; S5 = C=CCCC[C@](C)(N)C(=O)O

Chain of NF-κB pathway (O88522 whole entry): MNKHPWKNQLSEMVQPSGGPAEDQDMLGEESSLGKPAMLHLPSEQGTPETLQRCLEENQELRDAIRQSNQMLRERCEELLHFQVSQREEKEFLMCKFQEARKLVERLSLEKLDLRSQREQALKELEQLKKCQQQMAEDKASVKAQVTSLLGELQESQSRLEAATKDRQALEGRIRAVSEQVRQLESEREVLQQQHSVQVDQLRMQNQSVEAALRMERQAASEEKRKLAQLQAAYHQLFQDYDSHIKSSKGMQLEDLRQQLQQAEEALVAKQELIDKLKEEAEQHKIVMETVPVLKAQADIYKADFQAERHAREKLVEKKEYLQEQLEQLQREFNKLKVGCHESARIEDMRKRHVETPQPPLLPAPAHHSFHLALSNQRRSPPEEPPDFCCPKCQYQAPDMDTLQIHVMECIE
Chain of CC2-LZ domain of NEMO (O88522 242-343 limits assumed): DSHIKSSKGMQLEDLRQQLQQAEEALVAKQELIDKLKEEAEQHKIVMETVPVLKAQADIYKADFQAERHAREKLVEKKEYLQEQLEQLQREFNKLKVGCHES

Turning to “LKX1QADIYKX4RFQAERHAREK [UBI-SAHN A303-A310]”, the “IC 50 NF-κB inhibition” value in data set [1] is listed as “N.I*”. In addition, the “FACS peak median, first or only peak” value in data set [2] was 8.
`CC[C@H](C)[C@H](NC(=O)[C@H](CC(=O)O)NC(=O)[C@H](C)NC(=O)[C@H](CCC(N)=O)NC(=O)[C@H](C)NC(=O)[C@H](CCCCN)NC(=O)[C@H](CC(C)C)NC(=O)[C@H](CSC1CC(=O)N(CCNC(=O)CCC2=[N+]3C(=Cc4c(C)cc(C)n4[B-]3(F)F)C=C2)C1=O)NC(C)=O)C(=O)N[C@@H](Cc1ccc(O)cc1)C(=O)N[C@@H](CCCCN)C(=O)N[C@@]1(C)CCCC=CCCC[C@@](C)(C(=O)N[C@@H](CCC(=O)O)C(=O)N[C@@H](CCCNC(=N)N)C(=O)N[C@@H](Cc2c[nH]cn2)C(=O)N[C@@H](C)C(=O)N[C@@H](CCCNC(=N)N)C(=O)N[C@@H](CCC(=O)O)C(=O)N[C@@H](CCCCN)C(N)=O)NC(=O)[C@H](CCC(N)=O)NC(=O)[C@H](Cc2ccccc2)NC(=O)[C@H](CCCNC(=N)N)NC1=O` (stereo partly drawn) [UBI-SAHN A310-A314, LKAQADIYKX4RFQX6ERHAREK] (Ac-C(BODIPYFLEthylmaleimide)LKAQADIYK[S5]RFQ[S5]ERHAREK-NH2; staple 11-15): in data set [3], the ΔS is −11 cal. mol^−1.K^−1, the Tm amounted to 15 ± 0.3 C° and the ΔH was -13.39 kJ/mol. Further, the “α-helical content at 1° C.” value in data set [4] worked out at 65%. Also, the “IC 50 NF-κB inhibition” value in data set [1] was “N.I*”. Further, in data set [5] (setting [6]), the Kd is about 360 µM. Also, in data set [5], the “Binding affinity (FP) at 10 μM” value is “Very weak”.
Regarding “LKAQAX2IYKARFX5AERHAREK (LKAQA[R8]IYKARF[S5]AERHAREK; staple 6-13) [UBI-SAHN D306-Q313]”, the “IC 50 NF-κB inhibition” value in data set [1] is listed as “N.I*”. Besides, in data set [2], the “FACS peak median, first or only peak” value was 8 and the “FACS peak median, second peak” value is 52.
With `CC(=O)N[C@@H](CSC1CC(=O)N(CCNC(=O)CCC2=[N+]3C(=Cc4c(C)cc(C)n4[B-]3(F)F)C=C2)C1=O)C(=O)N[C@@H](CC(C)C)C(=O)N[C@@H](CCCCN)C(=O)N[C@@]1(C)CCCC=CCCC[C@@](C)(C(=O)N[C@@H](Cc2ccc(O)cc2)C(=O)N[C@@H](CCCCN)C(=O)N[C@@H](C)C(=O)N[C@@H](CCCNC(=N)N)C(=O)N[C@@H](Cc2ccccc2)C(=O)N[C@@H](CCC(N)=O)C(=O)N[C@@H](C)C(=O)N[C@@H](CCC(=O)O)C(=O)N[C@@H](CCCNC(=N)N)C(=O)N[C@@H](Cc2c[nH]cn2)C(=O)N[C@@H](C)C(=O)N[C@@H](CCCNC(=N)N)C(=O)N[C@@H](CCC(=O)O)C(=O)N[C@@H](CCCCN)C(N)=O)NC(=O)[C@H](CC(=O)O)NC(=O)[C@H](C)NC(=O)[C@H](CCC(N)=O)NC1=O` (stereo partly drawn) [UBI-SAHN A303-I307] (Ac-C(BODIPYFLEthylmaleimide)LK[S5]QAD[S5]YKARFQAERHAREK-NH2; staple 4-8), in data set [3], the ΔS is listed as −24 cal. mol^−1.K^−1, the Tm came to 19 ± 0.3 C° and the ΔH was -28.87 kJ/mol. Also, the “α-helical content at 1° C.” value in data set [4] came to 70%. In data set [1], the “IC 50 NF-κB inhibition” value is “N.I*”. Moreover, the Kd in data set [5] (setting [6]) is about 360 µM. Moreover, in data set [5], the “Binding affinity (FP) at 10 μM” value is reported as “Very weak”. For the same compound, in data set [2], the “FACS peak median, first or only peak” value was 10.
For `CC[C@H](C)[C@H](NC(=O)[C@H](CCCCN)NC(=O)[C@@H](NC(=O)[C@H](CCC(N)=O)NC(=O)[C@H](CCCNC(=N)N)NC(=O)[C@H](CSC1CC(=O)N(CCNC(=O)CCC2=[N+]3C(=Cc4c(C)cc(C)n4[B-]3(F)F)C=C2)C1=O)NC(C)=O)[C@@H](C)CC)C(=O)N[C@@H](Cc1c[nH]c2ccccc12)C(=O)N[C@@H](Cc1ccccc1)C(=O)N[C@@H](CCC(N)=O)C(=O)N[C@@H](CC(N)=O)C(=O)N[C@@H](CCCNC(=N)N)C(=O)N[C@@H](CCCNC(=N)N)C(=O)N[C@@H](CCSC)C(=O)N[C@@H](CCCCN)C(=O)N[C@@H](Cc1c[nH]c2ccccc12)C(=O)N[C@@H](CCCCN)C(=O)N[C@@H](CCCCN)C(=O)N[C@@H](CC(C)C)C(=O)N[C@@H](CCCCN)C(=O)N[C@@H](C)C(=O)N[C@@H](CCC(N)=O)C(=O)N[C@@H](C)C(=O)N[C@]1(C)CCCCCCC=CCCC[C@@](C)(C(=O)N[C@@H](C)C(=O)N[C@@H](CCC(=O)O)C(=O)N[C@@H](CCCNC(=N)N)C(=O)N[C@@H](Cc2c[nH]cn2)C(=O)N[C@@H](C)C(=O)N[C@@H](CCCNC(=N)N)C(=O)N[C@@H](CCC(=O)O)C(=O)N[C@@H](CCCCN)C(N)=O)NC(=O)[C@H](Cc2ccccc2)NC(=O)[C@H](CCCNC(=N)N)NC(=O)[C@H](C)NC(=O)[C@H](CCCCN)NC(=O)[C@H](Cc2ccc(O)cc2)NC(=O)[C@H]([C@@H](C)CC)NC1=O` (single isomer, unassigned) [A-UBI-SAHN D306-Q313 (A)], the IC50 in data set [1] (read-out: IC 50 NF-κB inhibition) is 0.6 µM. Moreover, in data set [5] (peptides with antennapedia, read-out: KD), the Kd was 0.06 µM.
As to `CC[C@H](C)[C@H](NC(=O)[C@H](CC(=O)O)NC(=O)C(C)(C)NC(=O)[C@H](CCC(N)=O)NC(=O)C(C)(C)NC(=O)[C@H](CCCCN)NC(=O)[C@@H](N)CC(C)C)C(=O)N[C@@H](Cc1ccc(O)cc1)C(=O)N[C@@H](CCCCN)C(=O)NC(C)(C)C(=O)N[C@@H](CCCNC(=N)N)C(=O)N[C@@H](Cc1ccccc1)C(=O)N[C@@H](CCC(N)=O)C(=O)NC(C)(C)C(=O)N[C@@H](CCC(=O)O)C(=O)N[C@@H](CCCNC(=N)N)C(=O)N[C@@H](Cc1c[nH]cn1)C(=O)NC(C)(C)C(=O)N[C@@H](CCCNC(=N)N)C(=O)N[C@@H](CCC(=O)O)C(=O)N[C@@H](CCCCN)C(=O)O` [UBI-AIB, LKAibQAibDIYKAibRFQAibERHAibREK] (HELM PEPTIDE1{L.K.[Aib].Q.[Aib].D.I.Y.K.[Aib].R.F.Q.[Aib].E.R.H.[Aib].R.E.K}$$$$V2.0), the “IC 50 NF-κB inhibition” value in data set [1] is “N.I*”.
Regarding `CC[C@H](C)[C@H](NC(=O)[C@H](CC(=O)O)NC(=O)[C@H](C)NC(=O)[C@H](CCC(N)=O)NC(=O)[C@H](C)NC(=O)[C@H](CCCCN)NC(=O)[C@@H](N)CC(C)C)C(=O)N[C@@H](Cc1ccc(O)cc1)C(=O)N[C@@H](CCCCN)C(=O)N[C@@H](C)C(=O)N[C@@H](CCCNC(=N)N)C(=O)N[C@@H](Cc1ccccc1)C(=O)N[C@@H](CCC(N)=O)C(=O)N[C@@H](C)C(=O)N[C@@H](CCC(=O)O)C(=O)N[C@@H](CCCNC(=N)N)C(=O)N[C@@H](Cc1c[nH]cn1)C(=O)N[C@@H](C)C(=O)N[C@@H](CCCNC(=N)N)C(=O)N[C@@H](CCC(=O)O)C(=O)N[C@@H](CCCCN)C(=O)O` [UBI, reference compound] (H-LKAQADIYKARFQAERHAREK-OH), the “IC 50 NF-κB inhibition” value in data set [1] was “N.I*”.
